Laboratory results published in patent US8754073B2, “Substituted piperazino-dihydrothienopyrimidines” (Boehringer Ingelheim International GmbH, priority 2007, dated 2014).
Structures can show the parent of a compound that is named as a salt.

Target: PDE4B (Homo sapiens, UniProt Q07343)
Assay: Scintillation Proximity Assay (SPA) of PDE4B enzyme activity ([H3]-cAMP cleavage)
Type: biochemical
Details: test substance 1 μM; one-hour incubation of [H3]-cAMP with PDE4B enzyme at 30° C.
Method in brief: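 Percent inhibition at 1 μM compound, measured against an uninhibited reaction. PDE4B hydrolysed tritiated cAMP for one hour at 30 °C, then scintillator beads were added to capture [H3]-5′-AMP. Light events were counted after 45 min bead settling.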

Sequence of PDE4B (Q07343 whole entry, species assumed): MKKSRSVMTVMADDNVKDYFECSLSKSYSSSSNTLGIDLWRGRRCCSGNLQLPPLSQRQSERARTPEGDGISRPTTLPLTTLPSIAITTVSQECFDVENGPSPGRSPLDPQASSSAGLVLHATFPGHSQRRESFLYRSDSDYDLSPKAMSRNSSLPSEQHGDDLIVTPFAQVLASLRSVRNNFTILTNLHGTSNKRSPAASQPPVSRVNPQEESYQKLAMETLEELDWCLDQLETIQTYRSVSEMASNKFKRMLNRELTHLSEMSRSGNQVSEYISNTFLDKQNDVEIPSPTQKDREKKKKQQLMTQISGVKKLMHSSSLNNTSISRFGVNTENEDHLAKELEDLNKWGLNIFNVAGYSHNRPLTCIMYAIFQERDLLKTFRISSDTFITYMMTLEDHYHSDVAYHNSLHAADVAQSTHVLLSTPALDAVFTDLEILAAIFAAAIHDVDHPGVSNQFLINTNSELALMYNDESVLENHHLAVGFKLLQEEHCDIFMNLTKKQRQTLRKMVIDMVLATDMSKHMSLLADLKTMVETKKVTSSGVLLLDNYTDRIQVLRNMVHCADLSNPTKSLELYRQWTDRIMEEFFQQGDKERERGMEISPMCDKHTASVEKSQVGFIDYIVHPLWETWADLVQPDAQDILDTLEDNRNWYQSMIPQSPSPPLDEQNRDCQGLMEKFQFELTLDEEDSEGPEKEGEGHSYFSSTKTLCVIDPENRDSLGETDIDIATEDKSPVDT

Row | inhibition at 1 µM | SMILES
1 | 90% | CS(=O)(=O)N1CC2(CCN(c3nc4c(c(NC5CCOCC5)n3)[S+]([O-])CC4)CC2)c2ccccc21 (stereo not drawn) [Example 59]
2 | 75% | [O-][S+]1CCc2nc(N3CCC4(CC3)OCc3ccccc34)nc(NC3(CO)CC3)c21 (stereo not drawn) [Example 109]
3 | 83% | CC(C)[C@H](CO)Nc1nc(N2CCC3(CC2)OC(=O)Nc2ccccc23)nc2c1[S+]([O-])CC2 (stereo partly drawn) [Example 21]
4 | 96% | N#Cc1cccc(C2CCN(c3nc4c(c(Nc5cccc(F)c5)n3)[S+]([O-])CC4)CC2)c1 (stereo not drawn) [Example 138]
5 | 94% | CC(C)[C@H](CO)Nc1nc(N2CCC(c3ccc(C#N)cc3)CC2)nc2c1[S+]([O-])CC2 (stereo partly drawn) [Example 20]
6 | 95% | COc1ccc(C2CCN(c3nc4c(c(Nc5cccc(F)c5)n3)[S+]([O-])CC4)CC2)cc1 (stereo not drawn) [Example 133]
7 | 96% | [O-][S+]1CCc2nc(N3CCC(c4cc5ccccc5o4)CC3)nc(NC3CCOCC3)c21 (stereo not drawn) [Example 126]
8 | 94% | COC(=O)c1ccc(C2CCN(c3nc4c(c(N[C@@H](CO)C(C)C)n3)[S+]([O-])CC4)CC2)cc1 (stereo partly drawn) [Example 150]
9 | 95% | COC(=O)c1ccc(C2CCN(c3nc4c(c(NC5(CO)CC5)n3)[S+]([O-])CC4)CC2)cc1 (stereo not drawn) [Example 103]
10 | 94% | CC(C)[C@H](CO)Nc1nc(N2CCC(c3nc4cc(Cl)ccc4s3)CC2)nc2c1[S+]([O-])CC2 (stereo partly drawn) [Example 149]
11 | 94% | O=C1Nc2ccccc2C2(CCN(c3nc4c(c(NC5CCOCC5)n3)[S+]([O-])CC4)CC2)O1 (stereo not drawn) [Example 65]
12 | 95% | [O-][S+]1CCc2nc(N3CCC(c4noc5cc(F)ccc45)CC3)nc(NC3(CO)CC3)c21 (stereo not drawn) [Example 105]
13 | 93% | CC(C)[C@H](CO)Nc1nc(N2CCC(c3cccc(O)c3)CC2)nc2c1[S+]([O-])CC2 (stereo partly drawn) [Example 17]
14 | 94% | [O-][S+]1CCc2nc(N3CCC(c4ccc5ccccc5c4)CC3)nc(Nc3cccc(F)c3)c21 (stereo not drawn) [Example 142]
15 | 95% | [O-][S+]1CCc2nc(N3CCC(c4nnc(-c5ccc(F)cc5)o4)CC3)nc(Nc3cccc(F)c3)c21 (stereo not drawn) [Example 143]
16 | 93% | CC(C)[C@H](CO)Nc1nc(N2CCC(c3ccc(Cl)cc3)CC2)nc2c1[S+]([O-])CC2 (stereo partly drawn) [Example 1, (R)-2-{2-[4-(4-chlorophenyl)-piperidin-1-yl]-5-oxo-6,7-dihydro-5H-5λ^4-thieno[3,2-d]pyrimidin-4-ylamino}-3-methylbutan-1-ol]
17 | 95% | [O-][S+]1CCc2nc(N3CCC(c4nc(-c5ccncc5)no4)CC3)nc(Nc3cccc(F)c3)c21 (stereo not drawn) [Example 147, (3-Fluorophenyl)-{5-Oxo-2-[4-(3-Pyridin-4-Yl-[1,2,4]Oxadiazol-5-Yl)-Piperidin-1-Yl]-6,7-Dihydro-5H-5λ^4-Thieno[3,2-d]Pyrimidin-4-Yl}-Amine Trifluoroacetate]

Same assay, conditions: test substance 1 μM; one-hour incubation with [H3]-cAMP at 30° C.

Row | inhibition at 1 µM | SMILES
18 | 95% | Cc1oc(C2CCN(c3nc4c(c(NC5CCOCC5)n3)[S+]([O-])CC4)CC2)nc1-c1ccccc1 (stereo not drawn) [Example 276]
19 | 92% | [O-][S+]1CCc2nc(N3CCC(Oc4ccc(F)cc4)CC3)nc(Nc3cccc(F)c3)c21 (stereo not drawn) [Example 165]
20 | 73% | O=C(c1ccc(F)cc1)C1(c2ccc(F)cc2)CCN(c2nc3c(c(NC4CCOCC4)n2)[S+]([O-])CC3)CC1 (stereo not drawn) [Example 297]
21 | 91% | N#Cc1ccc(OC2CCN(c3nc4c(c(NC5(CO)CC5)n3)[S+]([O-])CC4)CC2)cc1 (stereo not drawn) [Example 322]
22 | 98% | CN1C[C@@H](Nc2nc(N3CCC(c4cc5ccccc5o4)CC3)nc3c2[S+]([O-])CC3)CCC1=O (stereo partly drawn) [Example 187]
23 | 78% | CC(C)c1ccc(OC2CCN(c3nc4c(c(N[C@H]5CCC(=O)N(C)C5)n3)[S+]([O-])CC4)CC2)cc1 (stereo partly drawn) [Example 267]
24 | 95% | COC1(c2ccc(Cl)cc2)CCN(c2nc3c(c(N[C@H]4CCC(=O)N(C)C4)n2)[S+]([O-])CC3)CC1 (stereo partly drawn) [Example 261, 5-{2-[4-(4-chlorophenyl)-4-methoxypiperidin-1-yl]-5-oxo-6,7-dihydro-5H-5λ^4-thieno[3,2-d]pyrimidin-4-ylamino}-1-methylpiperidin-2-one]
